Reference: US11254668B2, “Pyrazolo[1,5-A]pyrazin-4-yl and related derivatives” (Pfizer Inc., priority 2017, dated 2022)
Read-outs that look alike come from different tables or passages of the source.

Assays:
Type in all cases: biochemical
JAK3 = JAK3 (Homo sapiens (Human), UniProt P52333); experiment: JAK Caliper Enzyme Assay at 1 mM ATP, JAK3
Summary of the method: (§1)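 Recombinant human kinase domains phosphorylated a fluorescent synthetic peptide at room temperature, with enzyme level and time tuned to 20% to 30% conversion; EDTA stop buffer ended reactions. Mobility-shift separation gave percent product from peak heights, normalised to DMSO and positive controls, and IC50s came from concentration–effect curves.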

JAK1 = JAK1 (Homo sapiens (Human), UniProt P23458); experiment: JAK Caliper Enzyme Assay at 1 mM ATP, JAK1
Chain of JAK1 (P23458 875-1153): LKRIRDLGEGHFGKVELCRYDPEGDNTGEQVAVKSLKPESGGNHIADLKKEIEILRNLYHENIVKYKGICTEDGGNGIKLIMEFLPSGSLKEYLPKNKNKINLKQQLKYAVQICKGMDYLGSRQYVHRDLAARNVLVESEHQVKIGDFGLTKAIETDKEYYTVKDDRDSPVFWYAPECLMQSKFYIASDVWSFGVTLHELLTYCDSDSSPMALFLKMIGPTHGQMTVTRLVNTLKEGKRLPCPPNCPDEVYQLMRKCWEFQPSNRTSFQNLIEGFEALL
Summary of the method: as §1

TYK2 = TYK2 (Homo sapiens (Human), UniProt P29597); experiment: JAK Caliper Enzyme Assay at 1 mM ATP, TYK2
Chain of TYK2 (P29597 897-1176): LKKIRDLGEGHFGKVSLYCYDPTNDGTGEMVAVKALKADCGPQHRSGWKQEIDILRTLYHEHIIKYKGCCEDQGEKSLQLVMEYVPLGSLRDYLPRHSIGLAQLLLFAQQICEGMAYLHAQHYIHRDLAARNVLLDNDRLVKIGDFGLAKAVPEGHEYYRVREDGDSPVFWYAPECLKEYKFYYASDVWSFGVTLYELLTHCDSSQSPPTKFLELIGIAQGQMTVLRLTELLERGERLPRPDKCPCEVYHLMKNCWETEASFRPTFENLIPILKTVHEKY
Summary of the method: (§2)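 Inhibition is measured as reduced phosphorylation of a synthetic peptide by the recombinant human kinase domain at 1 mM ATP. Conditions give 20–30% conversion at room temperature before EDTA quench, and on-chip separation of labelled substrate and product yields percent conversion for dose–response plotting.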

JAK2 = JAK2 (Homo sapiens (Human), UniProt O60674); experiment: JAK Caliper Enzyme Assay at 1 mM ATP, JAK2
Chain of JAK2 (O60674 849-1124): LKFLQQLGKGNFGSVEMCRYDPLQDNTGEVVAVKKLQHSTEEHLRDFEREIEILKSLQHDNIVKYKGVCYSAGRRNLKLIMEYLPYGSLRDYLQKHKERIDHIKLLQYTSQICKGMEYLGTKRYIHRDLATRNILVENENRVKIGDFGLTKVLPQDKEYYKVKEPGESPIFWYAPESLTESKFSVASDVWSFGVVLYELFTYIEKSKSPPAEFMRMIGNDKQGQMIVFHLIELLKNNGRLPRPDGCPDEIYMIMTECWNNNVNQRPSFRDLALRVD
Summary of the method: as §2

Chain of JAK3 (P52333 822-1111): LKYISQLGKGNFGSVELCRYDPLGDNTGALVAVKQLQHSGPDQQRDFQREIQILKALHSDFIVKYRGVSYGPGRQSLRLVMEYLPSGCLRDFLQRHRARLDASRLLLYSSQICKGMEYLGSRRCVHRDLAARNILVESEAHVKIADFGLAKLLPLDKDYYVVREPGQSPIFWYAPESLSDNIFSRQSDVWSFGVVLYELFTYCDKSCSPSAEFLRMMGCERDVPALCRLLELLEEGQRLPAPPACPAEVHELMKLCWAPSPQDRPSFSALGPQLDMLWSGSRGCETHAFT

Row | IC50 (JAK3) [µM] | IC50 (JAK1) [µM] | IC50 (TYK2) [µM] | IC50 (JAK2) [µM] | IC50 (JAK3; JAK Caliper enzyme assay) [µM] | IC50 (JAK1; JAK Caliper enzyme assay) [µM] | IC50 (TYK2; JAK Caliper enzyme assay) [µM] | IC50 (JAK2; JAK Caliper enzyme assay) [µM] | SMILES
1 | > 10 | 0.853 | 0.04 | 0.123 |  |  |  |  | N#CC[C@]1(n2ccc(-c3nc(-c4cccc(O)n4)cc4ncccc34)n2)C[C@@H](C#N)C1 [Example 181, cis-3-(cyanomethyl)-3-{3-[7-(6-hydroxypyridin-2-yl)-1,6-naphthyridin-5-yl]-1H-pyrazol-1-yl}cyclobutanecarbonitrile]
2 | > 10 | 5.83 | 0.73 | 3.43 |  |  |  |  | CC(=O)NC1CC(CC#N)(n2ccc(-c3nc(-c4cc[nH]n4)cc4ncccc34)n2)C1 (stereo not drawn) [Example 32, N-[trans-3-(cyanomethyl)-3-{3-[7-(1H-pyrazol-3-yl)-1,6-naphthyridin-5-yl]-pyrazol-1-yl}cyclobutyl]acetamide]
3 | > 10 | 1.8 | 0.053 | 0.955 |  |  |  |  | CO[C@H]1C[C@@](CC#N)(n2ccc(-c3nc(-c4ccn[nH]4)cc4ncccc34)n2)C1 [Example 31, (cis-3-methoxy-1-{3-[7-(1H-pyrazol-5-yl)-1,6-naphthyridin-5-yl]-1H-pyrazol-1-yl}cyclobutyl)acetonitrile]
4 | > 10 | 3.29 | 0.172 | 1.79 |  |  |  |  | CS(=O)(=O)N1CC(CC#N)(n2ccc(-c3nc(-c4cnco4)cc4ncccc34)n2)C1 [Example 145, [1-(methylsulfonyl)-3-{3-[7-(1,3-oxazol-5-yl)-1,6-naphthyridin-5-yl]-1H-pyrazol-1-yl}azetidin-3-yl]acetonitrile]
5 | > 10 | > 10 | 0.44 | 5.9 |  |  |  |  | CCN1CC(CC#N)(n2ccc(-c3nc(-c4cc(N)n(C)n4)cc4ncccc34)n2)C1 [Example 64, (3-{3-[7-(5-amino-1-methyl-1H-pyrazol-3-yl)-1,6-naphthyridin-5-yl]-1H-pyrazol-1-yl}-1-ethylazetidin-3-yl)acetonitrile]
6 | > 10 | 0.086 | 0.05 | 0.127 |  |  |  |  | N#CC[C@H]1C[C@](CC#N)(n2cc(-c3nc(-c4cn[nH]c4)cc4ncccc34)cn2)C1 [Example 2, 2,2′-(trans-1-{4-[7-(1H-pyrazol-4-yl)-1,6-naphthyridin-5-yl]-1H-pyrazol-1-yl}cyclobutane-1,3-diyl)diacetonitrile]
7 |  |  |  |  | > 10 | 3.08 | 0.167 | 1.29 | Cn1cc(-c2cc(-c3cnn(C4(CC#N)CN(S(C)(=O)=O)C4)n3)c3cccnc3c2)ccc1=O [Example 412, [3-{4-[7-(1-methyl-6-oxo-1,6-dihydropyridin-3-yl)quinolin-5-yl]-2H-1,2,3-triazol-2-yl}-1-(methylsulfonyl)azetidin-3-yl]acetonitrile]
8 | > 10 | 1.2 | 0.026 | 0.114 |  |  |  |  | N#CC[C@]1(n2ncc(-c3cc(-c4ccc(F)cn4)cc4ncccc34)n2)C[C@@H](C#N)C1 [Example 347, cis-3-(cyanomethyl)-3-{4-[7-(5-fluoropyridin-2-yl)quinolin-5-yl]-2H-1,2,3-triazol-2-yl}cyclobutanecarbonitrile]
9 | > 10 | 2.26 | 0.025 | 0.287 |  |  |  |  | Cn1ccc(-c2cc(-c3cnn(C4(CC#N)CN(S(C)(=O)=O)C4)n3)c3cccnc3c2)n1 [Example 311, [3-{4-[7-(1-methyl-1H-pyrazol-3-yl)quinolin-5-yl]-2H-1,2,3-triazol-2-yl}-1-(methylsulfonyl)azetidin-3-yl]acetonitrile]
10 | > 10 | 1.08 | 0.023 | 0.123 |  |  |  |  | N#CCC1(n2ncc(-c3cc(-c4ccccn4)cc4ncccc34)n2)CC(C#N)C1 (stereo not drawn) [Example 346, cis-3-(cyanomethyl)-3-{4-[7-(pyridin-2-yl)quinolin-5-yl]-2H-1,2,3-triazol-2-yl}cyclobutanecarbonitrile]
11 |  |  |  |  | > 10 | 3.14 | 0.093 | 0.909 | CS(=O)(=O)N1CC(CC#N)(n2ncc(-c3cc(-c4cccc(C(N)=O)c4)cc4ncccc34)n2)C1 [Example 430, 3-(5-{2-[3-(cyanomethyl)-1-(methylsulfonyl)azetidin-3-yl]-2H-1,2,3-triazol-4-yl}quinolin-7-yl)benzamide]
12 |  |  |  |  | > 10 | 1.56 | 0.02 | 0.389 | Cc1cc(-c2cc(-c3cnn([C@]4(CC#N)C[C@@H](C#N)C4)c3)n3ccnc3c2)[nH]n1 [Example 461, trans-3-(cyanomethyl)-3-{4-[7-(3-methyl-1H-pyrazol-5-yl)imidazo[1,2-a]pyridin-5-yl]-1H-pyrazol-1-yl}cyclobutanecarbonitrile]
13 |  |  |  |  | > 10 | > 10 | 3.76 | > 10 | N#CC[C@]1(n2ncc(-c3cc(-c4cc(C(N)=O)c(F)cn4)cc4ncccc34)n2)C[C@@H](C#N)C1 [Example 386, 2-(5-{2-[trans-3-cyano-1-(cyanomethyl)cyclobutyl]-2H-1,2,3-triazol-4-yl}quinolin-7-yl)-5-fluoropyridine-4-carboxamide]
14 | > 10 | > 10 | 2.46 | > 10 |  |  |  |  | Cn1nncc1-c1cc(-c2cnn([C@]3(CC#N)C[C@H](C#N)C3)n2)c2cccnc2c1 [Example 338, cis-3-(cyanomethyl)-3-{4-[7-(1-methyl-1H-1,2,3-triazol-5-yl)quinolin-5-yl]-2H-1,2,3-triazol-2-yl}cyclobutanecarbonitrile]
15 | > 10 | 0.88 | 0.016 | 0.092 |  |  |  |  | Cc1cc(-c2cc3ncccc3c(-c3ccn([C@]4(CC#N)C[C@H](C#N)C4)n3)n2)nn1C [Example 59, cis-3-(cyanomethyl)-3-{3-[7-(1,5-dimethyl-1H-pyrazol-3-yl)-1,6-naphthyridin-5-yl]-1H-pyrazol-1-yl}cyclobutanecarbonitrile]
16 | > 10 | 6.9 | 0.046 | 0.574 |  |  |  |  | Cc1cc(-c2nc(-c3cc(N)n(C)n3)cc3ncccc23)nn1[C@]1(CC#N)C[C@@H](C#N)C1 [Example 270, trans-3-{3-[7-(5-amino-1-methyl-1H-pyrazol-3-yl)-1,6-naphthyridin-5-yl]-5-methyl-1H-pyrazol-1-yl}-3-(cyanomethyl)cyclobutanecarbonitrile]
17 |  |  |  |  | > 10 | 4.37 | 0.123 | 0.54 | Cc1nc(-c2cc(-c3cnn([C@]4(CC#N)C[C@@H](C#N)C4)n3)c3cccnc3c2)ccc1CCO [Example 379, trans-3-(cyanomethyl)-3-(4-{7-[5-(2-hydroxyethyl)-6-methylpyridin-2-yl]quinolin-5-yl}-2H-1,2,3-triazol-2-yl)cyclobutanecarbonitrile]
18 |  |  |  |  | > 10 | 1.2 | 0.257 | 1.01 | COc1nc(-c2cc(-c3cnn([C@]4(CC#N)C[C@H](C#N)C4)n3)c3cccnc3c2)cnc1N [Example 407, cis-3-{4-[7-(5-amino-6-methoxypyrazin-2-yl)quinolin-5-yl]-2H-1,2,3-triazol-2-yl}-3-(cyanomethyl)cyclobutanecarbonitrile]

Row | SMILES | IC50 (JAK3) [µM] | IC50 (JAK1) [µM] | IC50 (TYK2) [µM] | IC50 (JAK2) [µM] | IC50 (JAK3; JAK Caliper enzyme assay) [µM] | IC50 (JAK1; JAK Caliper enzyme assay) [µM] | IC50 (TYK2; JAK Caliper enzyme assay) [µM] | IC50 (JAK2; JAK Caliper enzyme assay) [µM]
19 | N#CC[C@]1(n2ncc(-c3cc(-c4ccc(C(=O)O)cc4)cc4ncccc34)n2)C[C@H](C#N)C1 [Example 435, 4-(5-{2-[cis-3-cyano-1-(cyanomethyl)cyclobutyl]-2H-1,2,3-triazol-4-yl}quinolin-7-yl)benzoic acid] |  |  |  |  | > 10 | 0.208 | 0.017 | 0.179
